The supplement of paper PMC10331698
± gives the standard deviation of the averaged measurements.

How the values were obtained:
Experiment in all cases: level (log10 ratio to DMSO vehicle control); higher = higher biomarker level / cell amount than vehicle control
Conditions in all cases: in DMSO
[1] = compound: O=C(O)C(F)(F)C(F)(F)OC(F)(F)F [Perfluoro-3-methoxypropanoic acid]
Method: (§1)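 BioMAP Diversity Plus panel of 12 human primary cell co-culture systems (3C, 4H, LPS, SAg, BT, BF4T, BE3C, CASM3C, HDF3CGF, KF3CT, MyoF, Mphg). Compounds were added 1 h before stimulation and left for 24 h (MyoF 48 h; BT 72 h for soluble read-outs or 6 d for IgG). Biomarkers were read by ELISA, cytotoxicity by SRB, PBMC viability and proliferation by Alamar Blue. Each well value was divided by the mean of 8 DMSO control wells on the same plate and log10 transformed; duplicate blinded samples were tested at 4 concentrations.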

[2] = compound: COC(=O)CCC(F)(F)C(F)(F)C(F)(F)C(F)(F)F [Methyl 2H,2H,3H,3H-perfluoroheptanoate]
Method: as §1

[3] = compound: C=CC(F)(F)C(F)(F)C(F)(F)C(F)(F)C(F)(F)C(F)(F)C(F)(F)C(F)(F)C=C [1,8-Divinylperfluorooctane]
Method: as §1

[4] = compound: FC(F)(F)C(F)(F)C(F)(F)C(F)(F)C(F)(F)C(F)(F)C(F)(F)C(F)(F)CCS [2-(Perfluorooctyl)ethanthiol]
Method: as §1

[5] = compound: C=CC(=O)OCC(F)(F)C(F)(F)C(F)(F)C(F)(F)C(F)(F)C(F)(F)C(F)(F)F [1H,1H-Perfluorooctyl acrylate]
Method: as §1

[6] = compound: OCC(F)(F)OC(F)(F)C(F)(F)OC(F)(F)CO [1H,1H,8H,8H-Perfluoro-3,6-dioxaoctane-1,8-diol]
Method: as §1

[7] = compound: O=S(=O)(O)C(F)(F)C(F)(F)C(F)(F)C(F)(F)C(F)(F)C(F)(F)F [Perfluorohexanesulfonic acid]
Method: as §1

Row | Test System | level (log10) ([1]; 6700 nM) | level (log10) ([1]; 20000 nM) | level (log10) ([1]; 60000 nM) | level (log10) ([2]; 6700 nM) | level (log10) ([2]; 20000 nM) | level (log10) ([2]; 60000 nM) | level (log10) ([3]; 6700 nM) | level (log10) ([3]; 20000 nM) | level (log10) ([4]; 6700 nM) | level (log10) ([4]; 20000 nM) | level (log10) ([5]; 6700 nM) | level (log10) ([5]; 20000 nM) | level (log10) ([5]; 60000 nM) | level (log10) ([6]; 6700 nM) | level (log10) ([6]; 20000 nM) | level (log10) ([6]; 60000 nM) | level (log10) ([7]; 6700 nM) | level (log10) ([7]; 20000 nM) | level (log10) ([7]; 60000 nM)
1 | BF4T:CCL2/MCP-1 | 0.0075 ± 0.026 | 0.0115 ± 0.043 | 0.0535 ± 0.054 | -0.0105 ± 0.019 | -0.0245 ± 0.039 | -0.002 ± 0.0085 | -0.007 ± 0.0028 | 0.014 ± 0.047 | -0.0265 ± 0.029 | -0.031 ± 0.03 | -0.0145 ± 0.0021 | -0.0405 ± 0.0078 | -0.027 ± 0.0014 | 0.015 ± 0.028 | 0.012 ± 0.027 | 0.0085 ± 0.00071 | 0.028 ± 0.045 | -0.0075 ± 0.013 | -0.042 ± 0.037
2 | BF4T:CCL26/Eotaxin-3 | -0.033 ± 0.0085 | -0.031 ± 0.016 | 0.02 ± 0.057 | -0.0095 ± 0.005 | -0.0175 ± 0.0092 | -0.016 ± 0.0042 | -0.0405 ± 0.019 | -0.0355 ± 0.013 | -0.0585 ± 0.04 | -0.037 ± 0.0099 | -0.008 ± 0.016 | -0.019 ± 0.03 | -0.036 ± 0.031 | 0.0155 ± 0.0092 | 0.005 ± 0.035 | 0.024 ± 0.044 | 0.003 ± 0.0099 | -0.001 ± 0.02 | -0.0165 ± 0.037
3 | BF4T:CD54/ICAM-1 | 0.0165 ± 0.0064 | -0.0085 ± 0.011 | -0.0015 ± 0.0035 | -0.025 ± 0.034 | -0.0195 ± 0.019 | -0.026 ± 0.027 | -0.0115 ± 0.021 | -0.0095 ± 0.022 | 0.0025 ± 0.005 | -0.003 ± 0.0014 | -0.0105 ± 0.005 | -0.0165 ± 0.0035 | -0.0295 ± 0.0092 | -0.005 ± 0.0057 | 0.008 ± 0.0028 | -0.0005 ± 0.0035 | 0.0045 ± 0.00071 | -0.005 ± 0.011 | -0.022 ± 0.0099
4 | BE3C:CXCL11/I-TAC | -0.0125 ± 0.0035 | -0.0115 ± 0.0092 | 0.0045 ± 0.00071 | -0.0175 ± 0.012 | -0.011 ± 0.018 | -0.0095 ± 0.00071 | 0.011 ± 0.02 | -0.002 ± 0.0014 | 0.0035 ± 0.037 | 0.0175 ± 0.035 | 0.0115 ± 0.00071 | 0.016 ± 0.0099 | 0.009 ± 0.0014 | 0.007 ± 0.0014 | 0.0185 ± 0.0021 | 0.009 ± 0.014 | -0.004 ± 0.016 | 0.004 ± 0.011 | 0.0035 ± 0.016
5 | LPS:M-CSF | 0.001 ± 0.0085 | -0.0165 ± 0.00071 | 0.0235 ± 0.015 | -0.0005 ± 0.0035 | 0.002 ± 0.011 | 0.0105 ± 0.043 | -0.029 | -0.007 ± 0.031 | 0.0095 ± 0.0035 | -0.0035 ± 0.0092 | -0.001 ± 0.017 | 0.0045 ± 0.023 | 0.009 ± 0.0085 | -0.015 ± 0.0042 | -0.018 ± 0.031 | 0.007 ± 0.067 | -0.0065 ± 0.025 | -0.0045 ± 0.025 | 0.036 ± 0.02
6 | LPS:CD62E/E-Selectin | -0.0015 ± 0.011 | -0.0075 ± 0.005 | 0.0105 ± 0.0035 | -0.0315 ± 0.0021 | -0.034 ± 0.0014 | 0.0015 ± 0.013 | -0.0215 ± 0.029 | -0.023 ± 0.018 | 0.0275 ± 0.025 | 0.013 ± 0.011 | 0.0005 ± 0.0021 | 0.0095 ± 0.0092 | 0.0115 ± 0.011 | -0.0065 ± 0.0078 | -0.0155 ± 0.015 | 0.003 ± 0.0057 | -0.0035 ± 0.023 | 0.0025 ± 0.0064 | 0.008 ± 0.035
7 | BE3C:CD87/uPAR | -0.0225 ± 0.0092 | -0.012 ± 0.013 | 0.002 ± 0.041 | -0.003 ± 0.0014 | -0.0005 ± 0.00071 | -0.0185 ± 0.022 | 0.0045 ± 0.021 | -0.029 ± 0.025 | 0.009 ± 0.014 | 0.027 ± 0.0042 | -0.0045 ± 0.022 | 0.0205 ± 0.026 | 0.0315 ± 0.029 | -0.001 ± 0.0099 | 0.0265 ± 0.016 | -0.0125 ± 0.005 | 0.0285 ± 0.00071 | 0.0015 ± 0.0035 | 0.035 ± 0.025
